Several values for one entry are separate records, joined by “and”; a condition that tells them apart may be missing. Equal values may be shown once.
Target: SSTR2 (Homo sapiens, UniProt P30874)
Test: SSTRs Gi-mediated cAMP inhibition, GloSensor, HEK293, 5 μM forskolin, 15 min room temperature (SSTR2 wild-type);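 on Bottom (best-fit value): normalized to the maximal wild-type response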;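 on Bottom (best-fit): normalized to the maximal wild-type response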;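 on Span (best-fit value), cAMP inhibition: normalized to the maximal wild-type response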;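 on Span (best-fit value): normalized to the maximal wild-type response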;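 on Span (best-fit): normalized to the maximal wild-type response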;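 on Span: normalized to the maximal wild-type response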;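 on Top (best-fit): normalized to the maximal wild-type response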
Type: cell-based
Set-up: Best-fit Top, cAMP inhibition / Span, cAMP inhibition / Best-fit Bottom / Best-fit Top / Best-fit Span / Bottom / Span (best-fit value), cAMP inhibition / Top (best-fit value), cAMP inhibition: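 normalized to the maximal wild-type response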
Conditions: for Bottom (best-fit value) / LogEC50 (best-fit value) / Span (best-fit value) / Top (best-fit value): Y205A panel
Experimental: The levels of the intracellular 3′, 5′-cyclic AMP (cAMP) were measured by the GloSensor cAMP assay (Promega) as described in the previous studies[28],[41] which has been widely used. The human full-length SSTRs and mutants were cloned into the pcDNA3.1+ vector with a HA signal sequence followed by a Flag tag at the N-terminus. HEK293 cells (ATCC, CRL-1573) were seeded into 6-well microplates at a density of 1.0 × 10^6 cells/well and cultured for 24 h at 37 °C with 5% CO2. Cells were then co-transfected with SSTR wild-type or mutants and GloSensor plasmids. After 24 h of transfection, the cells were dissociated with TrypLE™ Express Enzyme (1X) (Thermo Fisher Scientific) and collected by centrifugation at 500 × g for 5 min. Then the collected cells were suspended in Hank’s balanced salt solution [HBSS (Thermo Fisher Scientific)] supplemented with […] (YEASEN), and then the suspension cells were seeded into 96-well plates with 90 μl/well. After incubating at room temperature for 40 min, 5 μM forskolin and ligands diluted in HBSS were added to each well and the plates were incubated at room temperature for 15 min. […] were measured using the Synergy H1 microplate reader (BioTek) and the data presented are means of at least three independent experiments.

[1] = WT-2 (run 2 of each mutant's batch)
[2] = WT-3 (run 3 of each mutant's batch)
[3] = cAMP inhibition best-fit, D122A set, WT-1
[4] = cAMP inhibition best-fit, D122A set, WT-2
[5] = cAMP inhibition best-fit, D122A set, WT-3
[6] = cAMP inhibition best-fit, F127A set, WT-1
[7] = cAMP inhibition best-fit, F127A set, WT-2
[8] = cAMP inhibition best-fit, F127A set, WT-3
[9] = cAMP inhibition best-fit, I130A set, WT-1
[10] = cAMP inhibition best-fit, I130A set, WT-2
[11] = cAMP inhibition best-fit, I130A set, WT-3
[12] = cAMP inhibition best-fit, Q102A set, WT-1
[13] = cAMP inhibition best-fit, Q102A set, WT-2
[14] = cAMP inhibition best-fit, Q102A set, WT-3
[15] = cAMP inhibition best-fit, Q126A set, WT-1
[16] = cAMP inhibition best-fit, Q126A set, WT-2
[17] = cAMP inhibition best-fit, Q126A set, WT-3
[18] = cAMP inhibition best-fit, V103A set, WT-1
[19] = cAMP inhibition best-fit, V103A set, WT-2
[20] = cAMP inhibition best-fit, V103A set, WT-3

SSTR2, sequence (P30874 whole entry): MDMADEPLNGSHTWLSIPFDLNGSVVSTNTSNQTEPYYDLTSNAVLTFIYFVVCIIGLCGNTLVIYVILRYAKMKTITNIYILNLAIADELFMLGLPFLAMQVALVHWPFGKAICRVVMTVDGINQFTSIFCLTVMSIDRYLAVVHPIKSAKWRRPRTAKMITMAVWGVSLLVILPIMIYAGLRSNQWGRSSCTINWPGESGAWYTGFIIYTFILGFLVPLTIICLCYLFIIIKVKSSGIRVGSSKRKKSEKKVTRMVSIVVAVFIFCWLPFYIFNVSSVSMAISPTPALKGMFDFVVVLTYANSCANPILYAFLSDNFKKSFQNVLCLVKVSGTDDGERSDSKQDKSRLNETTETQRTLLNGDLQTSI

N#Cc1cccc(-c2ccc3ncc(-c4cc(F)cc(F)c4)c(N4CCC(N)CC4)c3c2)c1O [paltusotine]
Span (best-fit) (WT-1, run paired with T194H): 111 | Top (best-fit) (WT-1, run paired with T194H): 106.2 | Bottom (best-fit) (WT-1, run paired with V103N): 16.51 | LogEC50 (WT-1, run paired with V103N): -8.678 | Span (best-fit) (WT-1, run paired with V103N): 89.51 | Top (best-fit) (WT-1, run paired with V103N): 106 | LogEC50 (WT-1, run paired with Y205R): -9.27 | Span (best-fit) (WT-1, run paired with Y205R): 108.3 | Top (best-fit) (WT-1, run paired with Y205R): 106.3 | Span (best-fit value), cAMP inhibition [1]: 111.8 and 113.8 and 107.7 and 112.3 | Top (best-fit value), cAMP inhibition [1]: 108 and 108.3 and 107.8 and 112.4 | Bottom (best-fit) (WT-2, run paired with D295F): -1.411 | LogEC50 (WT-2, run paired with D295F): -9.3 | Span (best-fit) (WT-2, run paired with D295F): 105.2 | Top (best-fit) (WT-2, run paired with D295F): 103.8 | Bottom (best-fit) (WT-2, run paired with F294Y): -1.411 | LogEC50 (WT-2, run paired with F294Y): -9.3 | Span (best-fit) (WT-2, run paired with F294Y): 105.2 | Top (best-fit) (WT-2, run paired with F294Y): 103.8 | Bottom (best-fit) (WT-2, run paired with I195M): 10.59 | LogEC50 (WT-2, run paired with I195M): -8.695 | Span (best-fit) (WT-2, run paired with I195M): 88.58 | Top (best-fit) (WT-2, run paired with I195M): 99.16 | Bottom (best-fit) (WT-2, run paired with T194H): -0.3773 | LogEC50 (WT-2, run paired with T194H): -8.796 | Span (best-fit) (WT-2, run paired with T194H): 113.8 | Top (best-fit) (WT-2, run paired with T194H): 113.4 | Bottom (best-fit) (WT-2, run paired with V103N): 8.218 | LogEC50 (WT-2, run paired with V103N): -8.87 | Span (best-fit) (WT-2, run paired with V103N): 100.4 | Top (best-fit) (WT-2, run paired with V103N): 108.6 | LogEC50 (WT-2, run paired with Y205R): -9.271 | Span (best-fit) (WT-2, run paired with Y205R): 104.8 | Top (best-fit) (WT-2, run paired with Y205R): 105.4 | Span (best-fit value), cAMP inhibition [2]: 106.7 and 111.8 and 113.8 and 112.4 and 113.7 | Top (best-fit value), cAMP inhibition [2]: 107.8 and 108 and 112 and 113.6 | Bottom (best-fit) (WT-3, run paired with D295F): 12.84 | LogEC50 (WT-3, run paired with D295F): -8.964 | Span (best-fit) (WT-3, run paired with D295F): 85.7 | Top (best-fit) (WT-3, run paired with D295F): 98.54 | Bottom (best-fit) (WT-3, run paired with F294Y): -4.818 | LogEC50 (WT-3, run paired with F294Y): -8.937 | Span (best-fit) (WT-3, run paired with F294Y): 111 | Top (best-fit) (WT-3, run paired with F294Y): 106.2 | Bottom (best-fit) (WT-3, run paired with T194H): 8.218 | LogEC50 (WT-3, run paired with T194H): -8.87 | Span (best-fit) (WT-3, run paired with T194H): 100.4 | Top (best-fit) (WT-3, run paired with T194H): 108.6 | Bottom (best-fit) (WT-3, run paired with V103N): -2.506 | LogEC50 (WT-3, run paired with V103N): -8.966 | Span (best-fit) (WT-3, run paired with V103N): 107.7 | Top (best-fit) (WT-3, run paired with V103N): 105.2 | LogEC50 (WT-3, run paired with Y205R): -8.678 | Span (best-fit) (WT-3, run paired with Y205R): 89.51 | Top (best-fit) (WT-3, run paired with Y205R): 106 | Bottom (best-fit value) (WT-1 (run 1)): -1.411 | LogEC50 (best-fit value) (WT-1 (run 1)): -9.3 | Span (best-fit value) (WT-1 (run 1)): 105.2 | Top (best-fit value) (WT-1 (run 1)): 103.8 | Bottom (best-fit value) (WT-2 (run 2)): 7.891 | LogEC50 (best-fit value) (WT-2 (run 2)): -9.109 | Span (best-fit value) (WT-2 (run 2)): 96.39 | Top (best-fit value) (WT-2 (run 2)): 104.3 | Bottom (best-fit value) (WT-3 (run 3)): 0.01788 | LogEC50 (best-fit value) (WT-3 (run 3)): -8.988 | Span (best-fit value) (WT-3 (run 3)): 104.7 | Top (best-fit value) (WT-3 (run 3)): 104.8 | Bottom [3]: -4.038 | LogEC50 [3]: -8.63 | Span [3]: 111.8 | Top [3]: 107.8 | Bottom [4]: -5.769 | LogEC50 [4]: -8.575 | Span [4]: 113.8 | Top [4]: 108 | Bottom [5]: -1.411 | LogEC50 [5]: -9.3 | Span [5]: 105.2 | Top [5]: 103.8 | Bottom [6]: -0.438 | LogEC50 [6]: -8.811 | Span [6]: 112.4 | Top [6]: 112 | Bottom [7]: -4.818 | LogEC50 [7]: -8.937 | Span [7]: 111 | Top [7]: 106.2 | Bottom [8]: -0.9578 | LogEC50 [8]: -9.526 | Span [8]: 107.3 | Top [8]: 106.4 | Bottom [9]: -3.466 | LogEC50 [9]: -9.53 | Span [9]: 116.5 | Top [9]: 113 | Bottom [10]: -6.932 | LogEC50 [10]: -9.494 | Span [10]: 126.2 | Top [10]: 119.3 | Bottom [11]: -3.016 | LogEC50 [11]: -8.949 | Span [11]: 106.8 | Top [11]: 103.7 | LogEC50 [12]: -9.218 | Span [12]: 100.2 | Top [12]: 103.5 | LogEC50 [13]: -8.923 | Span [13]: 98.67 | Top [13]: 106.5 | LogEC50 [14]: -8.998 | Span [14]: 106.7 | Top [14]: 106.1 | Bottom [15]: 7.891 | LogEC50 [15]: -9.109 | Span [15]: 96.39 | Top [15]: 104.3 | Bottom [16]: -2.459 | LogEC50 [16]: -8.801 | Span [16]: 121.7 | Top [16]: 119.3 | Bottom [17]: 2.655 | LogEC50 [17]: -9.073 | Span [17]: 104.2 | Top [17]: 106.8 | Bottom [18]: -2.459 | LogEC50 [18]: -8.801 | Span [18]: 121.7 | Top [18]: 119.3 | Bottom [19]: 3.281 | LogEC50 [19]: -9.218 | Span [19]: 100.2 | Top [19]: 103.5 | Bottom [20]: 7.801 | LogEC50 [20]: -8.923 | Span [20]: 98.67 | Top [20]: 106.5
